Source: patent US20220401428A1, “Method for Treatment of Alzheimer's Disease” (University of Kentucky Research Foundation, priority 2019, published 2022)
Entries after “also recorded” stand apart in the source; their conditions may differ.

How the values were obtained:
miR-103 and miR-107 = miR-103 and miR-107 expression in ECs by qRT-PCR; assay type: cell-based, rat; conditions: ECs incubated with human amylin
From the text: (§1) Total RNA was isolated using RNAqueous total RNA isolation kit according to manufacturer's protocol (Invitrogen, AM1914). cDNA synthesis and amplification were done using iTaq Universal SYBR Green One-Step Kit (Biorad; 1725151) with the following primer sequences: LRP1: forward (Fwd) 5′-[…]-3′(SEQ ID NO: 7), reverse (Rev) 5′-[…]-3′(SEQ ID NO: 8); and GAPDH: Fwd 5′- […]-3′(SEQ ID NO: 9), Rev 5′-GTTTGCTCCAACCAACTGC-3′(SEQ ID NO: 10) (IDT, Inc, USA). For miRNA quantification, cDNA was synthesized from total RNA using miRNA cDNA synthesis kit with poly (A) polymerase (ABMgood, G902). cDNA was amplified using SYBR Green mastermix (Biorad) along with miRNA specific primers from (rno-miR-103-3p, MPR00332; rno-miR-107-3p, MPRO0335; RNU6 house Keeping gene, MP-r99998) (ABMgood). Data were analyzed using the 2^−ΔΔCt method, and experiments were normalized to GAPDH or U6 miRNA

EC monolayer [1] = assay: Aβ42 transcytosis across the in vitro BBB model; assay type: cell-based, rat; conditions: 10 μM at the luminal side for 24 hours, then Aβ42-FAM at the abluminal side for 1 hour; vs vehicle; P<0.05
Experimental: In vitro BBB model of Aβ42 transcytosis with amylin-induced stress at the blood side. An in vitro BBB model described previously^37 was used with modifications related to amylin deposition on the EC monolayer and consequent effects on the Aβ transport across the EC monolayer. Briefly, primary rat brain microvascular endothelial cells (Cell Applications Inc) were plated on 24-well Transwell-Clear inserts with 0.4 μm pore polycarbonate membrane (Costar, Corning, N.Y., USA) and primary rat brain astrocytes (Sigma) were cultured at the bottom wells. Barrier integrity was measured from the trans-endothelial electrical resistance (TEER) as described previously^37,38 using the EVOM2 meter with STX-3 electrodes (World Precision Instruments). Maximum TEER was achieved within 8-10 days in culture. BBB permeabilities to human amylin (10 μM; Anaspec; AS-60254-1), rat amylin (10 μM; American Peptide) and DMSO (1 mM; vehicle) were assessed using FITC-Dextran 4 kDa (Fisher Scientific) diluted in Hank's Balanced Salt Solution (HBSS) buffer with 0.1% BSA (HBSS-BSA) as a paracellular diffusion marker. Permeability coefficients were calculated using the formula; P=(ΔQ/Δt)/(A*C0), (ΔQ/Δt)=rate of FITC-Dextran change; A=surface area of insert (0.33cm^2); C0=Initial FITC-Dextran input. […]

LRP1 = LRP1 protein expression in rat brain microvascular ECs (Western blot, immunofluorescence); assay type: cell-based; conditions: ECs, 24 hours, Western blot
From the text: To study the role of miRNA signaling in amylin-induced suppression of endothelial LRP1 expression, transfection of rat brain microvascular ECs was used with miR-103-3p (MCR01039)[…](SEQ ID NO: 5), miR-107-3p (MCR01045)[…](SEQ ID NO: 6) and control (MCH00000) (https://www.abmgood.com/mirna-mimic-negative-control-mch00000.html). Antagomir miR-103-3p (IH-320345-05-0005)(SEQ ID NO: 5), miR-107-3p (IH-320348-05-0005)(SEQ ID NO: 6) and negative control (IN-001005-01-05) (https://www.biocompare.com/22445-RNA/4995709-miRIDIAN-microRNA-Hairpin-Inhibitor-Negative-Control-1-5-nmol/#productspecs) (Dharmacon Inc.) were used in an attempt to rescue LRP1 expression. All transfections were done using RNAiMAX (Invitrogen) as per manufacturer's recommended protocol. Briefly, ECs were plated at 50% confluency in 6-well plates followed by co-transfection with either 100 nM of 103-3p and 107-3p mimics or antagomirs along with their respective negative controls. After 12-hours, antagomir-treated cell groups were further treated with 10 uM human amylin for 24-hours. After 36-hours of transfection, cells were harvested for Western blot analysis.
In immunofluorescence experiments, formalin-fixed, paraffin-embedded human brain tissue was used and processed as previously described^16,18,39, brain capillaries from HIP and WT rats isolated as previously described^18. and cultured ECs. Anti-amylin (1:200; clone E5; SC-377530; Santa Cruz), anti-collagen IV (1:500; ab6586; abcam), anti-alpha smooth muscle actin-Alexa Fluor 405 (1:200; ab210128, abcam), anti-caveolin-1 (1:100; sc-894; Santa Cruz, Tex.), anti-LRP1 (1:500; sc-57351; Santa Cruz), anti-4HNE (1:200; ab46545; abcam) were the primary antibodies. Secondary antibodies were: Alexa Fluor 488 conjugated anti-mouse IgG (1:300; A11029; Invitrogen), Alexa Fluor 568 conjugated anti-rabbit IgG (1:200; A11036; Invitrogen), Alexa Fluor 568 conjugated anti-mouse IgG (1:300; A11004; Invitrogen). Nuclei were counterstained with DAPI mounting media. For triple staining of human brain tissues, smooth muscle actin-Alexa Fluor 405 antibody was added after staining with human amylin and collagen IV; DAPI free mounting media was used. For Thioflavin S staining, after secondary antibody incubation, brain slides were incubated in 0.5% Thioflavin S for 30 minutes at room temperature. Slides were then incubated for 3 minutes in 70% ethanol, 5 minutes in 0.2% Sudan black before washing and mounting. Immunocytochemistry was performed as described previously (39, 40).
Western blot analysis was performed on isolated brain capillaries, brain tissue homogenate and plasma from rats. Tissues were processed as described previously^16,18,28,39. RIPA buffer with 2% SDS was used to retrieve Aβ monomers from frozen brain samples^41. […]

EC monolayer [2] = assay: Structural integrity of the EC monolayer in the in vitro BBB model (TEER, FITC-Dextran, morphology); assay type: cell-based, rat; conditions: 10 μM, 24 hours
Experimental: In vitro BBB model of Aβ42 transcytosis with amylin-induced stress at the blood side. An in vitro BBB model described previously^37 was used with modifications related to amylin deposition on the EC monolayer and consequent effects on the Aβ transport across the EC monolayer. Briefly, primary rat brain microvascular endothelial cells (Cell Applications Inc) were plated on 24-well Transwell-Clear inserts with 0.4 μm pore polycarbonate membrane (Costar, Corning, N.Y., USA) and primary rat brain astrocytes (Sigma) were cultured at the bottom wells. Barrier integrity was measured from the trans-endothelial electrical resistance (TEER) as described previously^37,38 using the EVOM2 meter with STX-3 electrodes (World Precision Instruments). Maximum TEER was achieved within 8-10 days in culture. BBB permeabilities to human amylin (10 μM; Anaspec; AS-60254-1), rat amylin (10 μM; American Peptide) and DMSO (1 mM; vehicle) were assessed using FITC-Dextran 4 kDa (Fisher Scientific) diluted in Hank's Balanced Salt Solution (HBSS) buffer with 0.1% BSA (HBSS-BSA) as a paracellular diffusion marker. Permeability coefficients were calculated using the formula; P=(ΔQ/Δt)/(A*C0), (ΔQ/Δt)=rate of FITC-Dextran change; A=surface area of insert (0.33cm^2); C0=Initial FITC-Dextran input.

LRP1 mRNA = LRP1 mRNA levels in ECs by qRT-PCR; assay type: cell-based; conditions: 10 μM, vs control cells and ECs incubated with rat amylin
From the text: as §1

[3] = system: rat brain microvascular endothelial cells; assay: MTS cytotoxicity assay on ECs; assay type: cell-based; conditions: 500 nM, 1 μM, 5 μM and 10 μM, 24 hours
From the text: CellTiter 96® AQueous One Solution Cell Proliferation Assay (MTS) (Promega) was used to assess cytotoxicity of aggregated amylin on the EC monolayer.

[4] = system: rat brain microvascular ECs; assay: Lipid peroxidation and ROS in cultured rat brain microvascular ECs; assay type: cell-based; conditions: 10 μM amylin, 24-hour incubation
Experimental: Lipid peroxidation and ROS were measured in cultured rat brain microvascular ECs using previously published protocols^26,39.

human amylin
miR-103 and miR-107 levels (miR-103 and miR-107): elevated levels of miR-103 and miR-107
reduction of the Aβ transcytosis quotient (EC monolayer [1]): 20+5%
reduction of LRP1 expression (LRP1; 10 μM): more than 50%
LRP1 protein levels against concentration (LRP1; various concentrations (500 nM to 10 μM)): decreased with increasing concentrations
EC monolayer morphology (EC monolayer [2]): neither the intercellular space, as assessed from FITC-dextran permeability (FIG. S4C-D), nor EC monolayer morphology (FIG. 18E) were significantly altered
TEER (EC monolayer [2]): decreased
intercellular space assessed from FITC-dextran (4 kDa) permeability (EC monolayer [2]): neither the intercellular space, as assessed from FITC-dextran permeability (FIG. S4C-D), nor EC monolayer morphology (FIG. 18E) were significantly altered
LRP1 mRNA levels (LRP1 mRNA): greatly elevated
viability of the ECs [3]: not significant; also recorded: not affected
generation of ROS [4]: increased generation of ROS
lipid peroxidation of the EC membranes [4]: lipid peroxidation of the EC membranes
